Reference: US9809573B2, “Substituted pyridine derivatives useful as GSK-3 inhibitors” (priority 2013, dated 2017)
Read-outs that look alike come from different tables or passages of the source.

Columns and labels:
GSK3β = GSK3β (Homo sapiens, UniProt P49841); assay: GSK3β kinase assay (Caliper LabChip3000, fluoresceinated peptide substrate); assay type: biochemical
Experimental: (§1) The kinase assay was performed in V-bottom 384-well plates. […] The reaction was incubated at room temperature for 20 hours and terminated by adding 45 μl of 35 mM EDTA to each sample. The reaction mixture was analyzed on the Caliper LabChip3000 (Caliper, Hopkinton, Mass.) by electrophoretic separation of the unphosphorylated substrate and phosphorylated product. […] Compounds were dissolved at 10 mM in dimethylsulfoxide (DMSO) and evaluated at eleven concentrations. IC50 values were derived by non-linear regression analysis.

GSK3α = GSK3α (Homo sapiens, UniProt P49840); assay: biochemical
Chain of GSK3α (P49840 whole entry, species assumed): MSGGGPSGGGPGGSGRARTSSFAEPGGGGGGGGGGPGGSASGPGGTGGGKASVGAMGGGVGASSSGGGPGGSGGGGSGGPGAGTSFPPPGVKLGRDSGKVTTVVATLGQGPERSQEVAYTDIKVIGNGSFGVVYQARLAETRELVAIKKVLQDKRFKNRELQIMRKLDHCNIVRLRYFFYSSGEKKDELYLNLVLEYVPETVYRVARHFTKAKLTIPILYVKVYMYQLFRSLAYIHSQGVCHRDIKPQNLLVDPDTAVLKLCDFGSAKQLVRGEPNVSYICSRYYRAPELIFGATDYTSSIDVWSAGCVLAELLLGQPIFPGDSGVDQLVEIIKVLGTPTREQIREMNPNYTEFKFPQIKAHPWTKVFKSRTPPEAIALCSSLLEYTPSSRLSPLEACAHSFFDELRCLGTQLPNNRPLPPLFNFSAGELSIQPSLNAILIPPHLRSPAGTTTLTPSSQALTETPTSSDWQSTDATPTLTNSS
Experimental: as §1

pTau = pTau assay (method not described); assay type: cell-based
[1] = first value of the cell, 250 pM enzyme, 20 uM ATP, 20 hours at room temperature, read-out: GSK3β/α (nM): GSK3β IC50
[2] = second value of the cell, 250 pM enzyme, 20 uM ATP, 20 hours at room temperature, read-out: GSK3β/α (nM): GSK3α IC50

Chain of GSK3β (P49841 whole entry, species assumed): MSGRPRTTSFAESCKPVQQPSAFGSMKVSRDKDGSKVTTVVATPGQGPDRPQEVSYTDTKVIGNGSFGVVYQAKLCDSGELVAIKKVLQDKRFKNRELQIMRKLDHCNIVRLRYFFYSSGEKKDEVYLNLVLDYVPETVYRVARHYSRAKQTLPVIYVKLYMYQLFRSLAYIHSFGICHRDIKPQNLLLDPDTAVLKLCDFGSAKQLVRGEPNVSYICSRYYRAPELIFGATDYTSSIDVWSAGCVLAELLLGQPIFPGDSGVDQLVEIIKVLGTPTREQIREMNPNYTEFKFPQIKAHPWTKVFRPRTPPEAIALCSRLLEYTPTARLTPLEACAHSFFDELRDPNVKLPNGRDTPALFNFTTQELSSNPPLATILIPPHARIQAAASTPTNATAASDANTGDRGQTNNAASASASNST

Row | Compound | IC50 (GSK3β; [1]) [nM] | IC50 (GSK3α; [2]) [nM] | IC50 (pTau; read-out: pTau) [nM] | IC50 (GSK3β) [nM] | IC50 (GSK3α) [nM] | IC50 (pTau; read-out: pTau (nM)) [nM]
1 | O=C(Nc1cnccc1I)c1ccnc(NC(=O)C2CC2)c1 [Example 19, 2-(Cyclopropanecarboxamido)-N-(4-iodopyridin-3-yl)isonicotinamide] | 1.4 | 0.96 | 35 |  |  | 
2 | O=C(Nc1cncc(C2CC2)c1)c1ccnc(NC(=O)C2CC2)c1 [Example 22, 2-(Cyclopropanecarboxamido)-N-(5-cyclopropylpyridin-3-yl)isonicotinamide] | 7.1 | 2.4 | 250 |  |  | 
3 | O=C(Nc1cnccc1C(O)C(F)(F)F)c1ccnc(NC(=O)C2CC2)c1 (stereo not drawn) [Example 23, 2-(Cyclopropanecarboxamido)-N-(4-(2,2,2-trifluoro-1-hydroxyethyl)pyridin-3-yl)isonicotinamide] |  |  |  | 5.8 | 2.4 | 48
4 | O=C(Nc1cnccc1C(=O)C(F)(F)F)c1ccnc(NC(=O)C2CC2)c1 [Example 24, 2-(Cyclopropanecarboxamido)-N-(4-(2,2,2-trifluoroacetyl)pyridin-3-yl)isonicotinamide] |  |  |  | 0.95 | 1.2 | 110
5 | O=C(Nc1cnccc1N1CCOCC1)c1ccnc(NC(=O)C2CC2)c1 [Example 30, 2-(Cyclopropanecarboxamido)-N-(4-morpholinopyridin-3-yl)isonicotinamide] |  | 0.54 | 23 | 1 |  | 
6 | O=C(Nc1cnccc1C1CCC1)c1ccnc(NC(=O)C2CC2)c1 [Example 41, N-(4-cyclobutylpyridin-3-yl)-2-(cyclopropanecarboxamido)isonicotinamide] |  | 3 | 380 | 7.5 |  | 
7 | Cc1cc(-c2ccncc2NC(=O)c2ccnc(NC(=O)C3CC3)c2)cs1 [Example 43, 2-(Cyclopropanecarboxamido)-N-(4-(5-methylthiophen-3-yl)pyridin-3-yl)isonicotinamide] | 2.8 | 0.85 | 49 |  |  | 
8 | O=C(Nc1cnccc1N1CCC(F)(F)CC1)c1ccnc(NC(=O)C2CC2)c1 [Example 45, 2-(Cyclopropanecarboxamido)-N-(4-(4,4-difluoropiperidin-1-yl)pyridin-3-yl)isonicotinamide] |  |  |  | 0.22 | 0.19 | 5.1
9 | O=C(Nc1cnccc1N1CCCCC1)c1ccnc(NC(=O)C2CC2)c1 [Example 50, 2-(Cyclopropanecarboxamido)-N-(4-(piperidin-1-yl)pyridin-3-yl)isonicotinamide] |  | 0.35 | 23 | 0.99 |  | 
10 | C[C@@H]1COCCN1c1ccncc1NC(=O)c1ccnc(NC(=O)C2CC2)c1 [Example 52, (R)-2-(cyclopropanecarboxamido)-N-(4-(3-methylmorpholino)pyridin-3-yl)isonicotinamide] |  | 0.21 | 12 | 0.49 |  | 
11 | O=C(Nc1cnccc1N1CCCCCC1)c1ccnc(NC(=O)C2CC2)c1 [Example 53, N-(4-(azepan-1-yl)pyridin-3-yl)-2-(cyclopropanecarboxamido)isonicotinamide] | 37 | 14 | 1200 |  |  | 
12 | C[C@H]1COCCN1c1ccncc1NC(=O)c1ccnc(NC(=O)C2CC2)c1 [Example 54, (S)-2-(cyclopropanecarboxamido)-N-(4-(3-methylmorpholino)pyridin-3-yl)isonicotinamide] |  | 0.07 | 2 | 0.06 |  | 
13 | O=C(Nc1cnccc1-c1ccc(C(F)(F)F)cc1)c1ccnc(NC(=O)C2CC2)c1 [Example 56, 2-(Cyclopropanecarboxamido)-N-(4-(4-(trifluoromethyl)phenyl)pyridin-3-yl)isonicotinamide] | 13 | 8.4 | 230 |  |  | 
14 | O=C(Nc1c(-c2ccccc2)ccnc1Cl)c1ccnc(NC(=O)C2CC2)c1 [Example 59, N-(2-chloro-4-phenylpyridin-3-yl)-2-(cyclopropanecarboxamido)isonicotinamide] | 78 | 70 | 8200 |  |  | 
15 | O=C(Nc1cnccc1N1C2CCC1CC2)c1ccnc(NC(=O)C2CC2)c1 [Example 60, N-(4-(1s,4s)-7-azabicyclo[2.2.1]heptan-7-yl)pyridin-3-yl)-2-(cyclopropanecarboxamido)isonicotinamide] | 16 | 5.7 | 620 |  |  | 
16 | COc1ccnc(-c2ccccc2)c1NC(=O)c1ccnc(NC(=O)C2CC2)c1 [Example 62, 2-(Cyclopropanecarboxamido)-N-(4-methoxy-2-phenylpyridin-3-yl)isonicotinamide] | 2.6 | 4.8 | 310 |  |  | 

Row | Compound | IC50 (GSK3β; [1]) [nM] | IC50 (GSK3α; [2]) [nM] | IC50 (pTau; read-out: pTau) [nM] | IC50 (GSK3β) [nM] | IC50 (GSK3α) [nM] | IC50 (pTau; read-out: pTau (nM)) [nM]
17 | O=C(Nc1c(-c2ccccc2)ncc2ccccc12)c1ccnc(NC(=O)C2CC2)c1 [Example 63, 2-(Cyclopropanecarboxamido)-N-(3-phenylisoquinolin-4-yl)isonicotinamide] | 12 | 56 | 4100 |  |  | 
18 | O=C(Nc1cnccc1-c1cncnc1)c1ccnc(NC(=O)C2CC2)c1 [Example 64, 2-(Cyclopropanecarboxamido)-N-(4-(pyrimidin-5-yl)pyridin-3-yl)isonicotinamide] | 97 | 76 | ≥ 10000 |  |  | 
19 | O=C(Nc1cnccc1-c1ccc(C(F)(F)F)cc1Cl)c1ccnc(NC(=O)C2CC2)c1 [Example 70, N-(4-(2-chloro-4-(trifluoromethyl)phenyl)pyridin-3-yl)-2-(cyclopropanecarboxamido)isonicotinamide] | 7 | 4.5 | 280 |  |  | 
20 | CCCc1ccc(-c2ccncc2NC(=O)c2ccnc(NC(=O)C3CC3)c2)cc1 [Example 72, 2-(Cyclopropanecarboxamido)-N-(4-(4-propylphenyl)pyridin-3-yl)isonicotinamide] | 3.1 | 6.4 | 250 |  |  | 
21 | CC(C)c1ccc(-c2ccncc2NC(=O)c2ccnc(NC(=O)C3CC3)c2)cc1 [Example 75, 2-(Cyclopropanecarboxamido)-N-(4-(4-isopropylphenyl)pyridine-3-yl)isonicotinamide] | 30 | 7.4 | 460 |  |  | 
22 | C[C@@H]1CN(c2ccncc2NC(=O)c2ccnc(NC(=O)C3CC3)c2)C[C@H](C)O1 [Example 79, 2-(Cyclopropanecarboxamido)-N-(4-((2S,6R)-2,6-dimethylmorpholino)pyridin-3-yl)isonicotinamide] |  | 5.5 | 190 | 14 |  | 
23 | O=C(Nc1cnccc1N1CCCC(F)(F)C1)c1ccnc(NC(=O)C2CC2)c1 [Example 80, 2-(Cyclopropanecarboxamido)-N-(4-(3,3-difluoropiperidin-1-yl)pyridin-3-yl)isonicotinamide] | 1.5 | 0.46 | 34 |  |  | 
24 | COc1ccc(-c2ccncc2NC(=O)c2ccnc(NC(=O)C3CC3)c2)c(F)c1 [Example 81, 2-(Cyclopropanecarboxamido)-N-(4-(2-fluoro-4-methoxyphenyl)pyridin-3-yl)isonicotinamide] | 1.3 | 0.58 | 31 |  |  | 
25 | O=C(Nc1cnccc1-c1ccc(C(F)(F)F)cc1F)c1ccnc(NC(=O)C2CC2)c1 [Example 82, 2-(Cyclopropanecarboxamido)-N-(4-(2-fluoro-4-(trifluoromethyl)phenyl)pyridine-3-yl)isonicotinamide] | 9.6 | 4 | 200 |  |  | 
26 | O=C(Nc1cnccc1N1CCC(F)(F)C1)c1ccnc(NC(=O)C2CC2)c1 [Example 83, 2-(Cyclopropanecarboxamido)-N-(4-(3,3-difluoropyrrolidin-1-yl)pyridin-3-yl)isonicotinamide] | 71 | 49 | 4400 |  |  | 
27 | N#Cc1ccc(-c2ccncc2NC(=O)c2ccnc(NC(=O)C3CC3)c2)c(F)c1 [Example 85, N-(4-(4-cyano-2-fluorophenyl)pyridin-3-yl)-2-(cyclopropanecarboxamido)isonicotinamide] | 2.9 | 0.94 | 33 |  |  | 
28 | O=C(Nc1cnccc1-c1cc(Cl)ccc1F)c1ccnc(NC(=O)C2CC2)c1 [Example 86, 2-(Cyclopropanecarboxamido)-N-(4-(2-fluoro-5-chloro-phenyl)pyridin-3-yl)isonicotinamide] | 54 | 26 | 630 |  |  | 
29 | CC1(C)CN(c2ccncc2NC(=O)c2ccnc(NC(=O)C3CC3)c2)CCO1 [Example 87, 2-(Cyclopropanecarboxamido)-N-(4-(2,2-dimethylmorpholino)pyridin-3-yl)isonicotinamide] |  | 0.39 | 25 | 0.79 |  | 
30 | O=C(Nc1c(N2CCOCC2)ccnc1F)c1ccnc(NC(=O)C2CC2)c1 [Example 88, 2-(Cyclopropanecarboxamido)-N-(2-fluoro-4-morpholinopyridin-3-yl)isonicotinamide] | 9.1 | 3.9 | 170 |  |  | 
31 | CC1(C)COCCN1c1ccncc1NC(=O)c1ccnc(NC(=O)C2CC2)c1 [Example 90, 2-(Cyclopropanecarboxamido)-N-(4-(3,3-dimethylmorpholino)pyridin-3-yl)isonicotinamide] |  | 0.1 | 0.4 | 0.15 |  | 
32 | CN(C)C(=O)c1ccc(-c2ccncc2NC(=O)c2ccnc(NC(=O)C3CC3)c2)c(F)c1 [Example 92, 2-(Cyclopropanecarboxamido)-N-(4-(4-(dimethylcarbamoyl)-2-fluorophenyl)pyridin-3-yl)isonicotinamide] | 24 | 11 | 460 |  |  | 
